The text below walks through data of PMC9000413, “Isolation and Structural Elucidation of Compounds from Pleiocarpa bicarpellata and Their In Vitro Antiprotozoal Activity” (Molecules, 2022).

Like-named read-outs stand apart in the source and are kept apart here. Where only a bound is given, the exact number is not on record here.

The subject of data set [1] is P. falciparum. Also on record: method as in PMID 11378289. Particulars: alkaloids from the methanol root extract of P. mutica; cited from earlier work.
The subject of the next data set is L. donovani. In words: In vitro antileishmanial assay (L. donovani MHOM-ET-67/L82, axenically grown amastigotes). The format is cell-based, Leishmania donovani. Particulars: for IC50: Leishmania donovani, pure compounds and reference drug, mean of two independent assays, axenically grown amastigotes.
In data set [2] the test system is P. falciparum. Put plainly: In vitro antiplasmodial assay (P. falciparum NF54, intraerythrocytic). To be noted: for IC50: Plasmodium falciparum, NF54, read-out: IC50 P. falciparum; for selectivity ratio: rat. The protocol: The in vitro activity was assessed on T. b. rhodesiense (STIB900, bloodstream forms), T. cruzi (Tulahuen C2C4, intracellular amastigotes), L. donovani (MHOM-ET-67/L82, axenically grown amastigotes), P. falciparum (NF54, intraerythrocytic), and L6 cells (rat skeletal myoblasts) as previously described. Results are expressed in µg/mL for extracts and in µM for pure compounds.

The test system of another data set is T. b. rhodesiense. In words: In vitro antitrypanosomal assay (T. b. rhodesiense STIB900, bloodstream forms). It is filed as cell-based. To be noted: Trypanosoma brucei.
In data set [3] the test system is T. cruzi. In words: In vitro antitrypanosomal assay (T. cruzi Tulahuen C2C4, intracellular amastigotes). It is filed as cell-based. To be noted: Trypanosoma cruzi.
Protocol: (§1) The in vitro activity was assessed on T. b. rhodesiense (STIB900, bloodstream forms), T. cruzi (Tulahuen C2C4, intracellular amastigotes), L. donovani (MHOM-ET-67/L82, axenically grown amastigotes), P. falciparum (NF54, intraerythrocytic), and L6 cells (rat skeletal myoblasts) as previously described [42].
Data set [4] in a line: Cytotoxicity against rat skeletal myoblast L6 cells. The format is cell-based.
Protocol: as §1
Data set [5] has as its system T. cruzi. Also on record: method as in PMID 26755152. To be noted: previous study; cited from earlier work.
For another data set, the system named is P. berghei. Also on record: method as in PMID 11378289. Particulars: in vivo mouse model, daily doses of 25 mg/kg/day, compared to untreated control mice; cited from earlier work.
Data set [6] concerns T. cruzi. The arrangement: method as in PMID 25233577. To be noted: cited from earlier work.
The next data set deals with L. infantum. Also on record: method as in PMID 25233577. Particulars: cited from earlier work.
Where [7] appears, read: Selectivity index (SI) = IC50 cytotoxicity/IC50 against parasite, L6 cells vs P. falciparum.

Protocol for L. donovani: as §1
Protocol for T. b. rhodesiense: as §1

`C/C=C1/CN2CC[C@@]34CN5c6c(cccc6[C@@]67CCN8CCC[C@@]9(CC[C@@]56[C@@H]9C)[C@H]87)[C@@]35[C@@H]2C[C@@H]1[C@@H](C(=O)OC)N5c1ccccc14` [pleiomutinine, reference compound]: the IC50 with P. falciparum [1] was 5 µM.
With `CCCCCCCCCCCCCCCCOP(=O)([O-])OCC[N+](C)(C)C` [Miltefosine, reference compound], in the data set with L. donovani, half-maximal inhibition (IC50) was put at 0.554 µM.
As for `CCC1C2CCN3CCC4(C(=C2C(=O)OC)Nc2ccccc24)C13` [Compound 15, methyl (7S,15R,20R,21S)-20-ethyl-5,6,14,15,21-hexahydro-15,21-ethanopyrrolo[5,21-d]carbazole-16-carboxylate-methane], the IC50 with L. donovani, in the data set on P. falciparum [2], in the data set with T. b. rhodesiense and in the data set with T. cruzi [3] was > 50 µM each time.
For `COC(=O)[C@@H]1CC23CCCN4CC[C@@]5(c6ccccc6NC15CC2)[C@@H]43` (stereo partly shown) [Compound 2, kopsinine], in the data set with P. falciparum [1], the IC50 is > 200 µM.
For the compound `C=C[C@H]1[C@H](O[C@@H]2O[C@H](CO)[C@@H](O)[C@H](O)[C@H]2O)OC=C(C(=O)OC)[C@H]1CC(=O)O` [Compound 16, secoxyloganin], the IC50 with L. donovani was 25.3 µM; with P. falciparum [2], > 50 µM; in data set [4] (rat), 294 µM; with T. cruzi [5], > 150 µM. Also, the selectivity ratio with L. donovani (rat, L6 cells vs L. donovani, read-out: Selectivity index (SI) = IC50 cytotoxicity/IC50 against parasite) is 11.6.
Take `CCN(CC)CCCC(C)Nc1ccnc2cc(Cl)ccc12` (stereo not shown) [Chloroquine, reference compound]: the concentration for half-maximal inhibition (IC50) with P. falciparum [2] turned out to be 0.006 µM.
Regarding `COC(=O)[C@@H]1CC23CCCN4CC[C@@]5(c6ccccc6N(C(=O)OC)C15CC2)[C@@H]43` (stereo partly shown) [Compound 11, pleiocarpine], the 50% inhibitory concentration (IC50) in the data set with L. donovani is > 50 µM; in the data set on P. falciparum [2], 26.6 µM; in [4] (rat), 156 µM; in the data set with P. falciparum [1], > 200 µM. Besides, the selectivity ratio in the data set with P. falciparum [2] worked out at 5.8. Also, the reduced parasitemia in the data set with P. berghei was 28.5%.
As for `COc1cc([C@@H]2c3cc4c(cc3[C@H](O)[C@H]3COC(=O)[C@H]23)OCO4)cc(OC)c1OC` [Podophyllotoxin, reference compound], the half-inhibitory concentration (IC50) in data set [4] (pure compounds and reference drug, rat skeletal myoblast L6 cells, mean of two independent assays, read-out: IC50 Cytotoxicity) was determined as 0.027 µM.
On to `CC=C1C[N+]2(C)C3CC1C(CO)(C(=O)OC)C2Cc1c3[nH]c2ccccc12` (stereo not shown) [Compound 6, macusine A], for which the IC50 with L. donovani is > 50 µM; with P. falciparum [2], 26.9 µM; in [4] (L6 cells (rat skeletal myoblasts), pure compounds and reference drug, rat skeletal myoblast L6 cells, mean of two independent assays, read-out: IC50 Cytotoxicity) it was 272 µM. Besides, in the data set on P. falciparum [2] (setting [7]), the selectivity ratio turned out to be 10.1.
For `CC[C@H]1[C@@H]2CCN3CC[C@@]4(C(=C2C(=O)OC)Nc2ccccc24)[C@@H]13` [Compound 13, tubotaiwine], the IC50 in the data set on L. donovani was > 50 µM; in the data set with P. falciparum [2] it was 8.5 µM; in data set [4] (rat) it was 197 µM; with L. infantum, 17.3 µM. For the same compound, the “Selectivity index (SI) = IC50 cytotoxicity/IC50 against parasite” value in the data set with P. falciparum [2] (L6 cells vs P. falciparum) is listed as 23.2. For the same compound, the selectivity ratio with P. falciparum [2] (setting [7]) was 23.4. Also, the “activity against T. cruzi” value in the data set with T. cruzi [6] is listed as “no activity”.

A word on the IC50: it is the point on the concentration scale where inhibition reaches its midpoint.
